Key:
[1] = system: Foxp3; test: Foxp3 expression in CD4+ T cells of E2-treated, MOG-35-55 immunized mice at peak of EAE; assay type: in vivo, C57BL/6 mice; conditions: peak of disease
Protocol: FIG. 2 is a graph illustrating real-time RT-PCR analysis of Foxp3. C57BL/6 and Esr^−/− mice were implanted with placebo or 2.5 mg E2 pellets and immunized 1 week later with 200 μg MOG-35-55 peptide in CFA with pertussis toxin on days 0 and +2. At the peak of clinical disease, mice were sacrificed and splenocytes sorted for CD4+ cells. cDNA was prepared and analyzed by real-time PCR to determine Foxp3 mRNA levels. Data are presented as Foxp3 relative to housekeeping gene L32. Error bars are standard deviation of triplicate samples.
Control lane is lysate of 293T cells transfected with Foxp3 cDNA. The CD25+ fraction (among CD4+) of each sample is noted above bars.
Female naïve or syngeneic pregnant (19 days) C57BL/6 mice were purchased from Jackson Laboratory (Bar Harbor, Me.). Estrogen receptor alpha knockout (Esrl^−/−) mice were purchased from Taconic (Germantown, N.Y.). Most experiments represent cells pooled from at least five mice per experimental condition.
For E2 therapy, a 3 mm pellet containing 2.5 mg or 15 mg (as indicated) 17β-estradiol (Innovative Research of America, Sarasota, Fla.) was implanted s.c. (dorsally) 7 days prior to immunization (EAE) or 14 days prior to analysis of naïve mice. These pellets are designed to release their contents at a constant rate over 60 days. Control animals were implanted with pellets containing saline. Serum levels of E2 were monitored by RIA. […]
For real-time RT-PCR analysis, total RNA was prepared using the Total RNeasy kit (Qiagen, Germantown, Md.) and cDNA was prepared using random hexamer primers (Invitrogen, Grand Island, N.Y.). Foxp3 message expression was quantified using the ABI 7000 Real-Time PCR System (Applied Biosystems, Foster City, Calif.). Amplification was performed in a total volume of 25 μl for 40 cycles and products were detected using SYBR Green I dye (Molecular Probes, Eugene, Oreg.). Samples were run in triplicate and relative expression level was determined by normalization to L32 with results presented as relative expression (RE) units. […]

[2] = system: EAE; test: EAE induced with MOG-35-55 peptide/CFA/pertussis toxin, clinical score; assay type: in vivo, C57BL/6 mice
Text: Female C57BL/6 mice were pretreated with 17β-estradiol (E2) or placebo for 7 days prior to challenge with MOG-35-55 peptide/CFA/PM to induce EAE. At the peak of EAE in the placebo group (day 15 after induction), cells were harvested from both the placebo-treated mice (score=4.5-5) and E2-treated mice (score=0). Cell mixtures were combined within each treatment group. Five×10^4 CD4+CD25− responder cells in combination with 5×10^4 APC and the indicated ratios of CD4+CD25+ suppressor cells were stimulated in triplicate wells with anti-CD3 mAb for 3 days, with addition of [^3H]-thymidine for the last 12 h of culture. Representative data from two independent experiments are shown.
For E2 therapy, a 3 mm pellet containing 2.5 mg or 15 mg (as indicated) 17β-estradiol (Innovative Research of America, Sarasota, Fla.) was implanted s.c. (dorsally) 7 days prior to immunization (EAE) or 14 days prior to analysis of naïve mice. These pellets are designed to release their contents at a constant rate over 60 days. Control animals were implanted with pellets containing saline. Serum levels of E2 were monitored by RIA.
Briefly, mice were immunized s.c. in the flanks with 200 μg MOG-35-55 peptide in CFA (Difco Laboratories, Detroit, Mich.). Mice were also given pertussis toxin i.p on days 0 (75 ng) and 2 (200 ng).

C[C@]12CC[C@@H]3c4ccc(O)cc4CC[C@H]3[C@@H]1CC[C@@H]2O [E2, 17β-estradiol]
Foxp3 mRNA levels in CD4+ T cells increased ([1]; Esr1−/− mice lacking estrogen receptor-α, MOG-35-55 immunized): not
FoxP3 protein expression and CD25+ number in E2-treated mice, Esr1−/− versus wild-type ([1]; western blot and flow cytometry): substantially lower
Foxp3 mRNA levels in CD4+ T cells ([1]; wild-type C57BL/6 mice, MOG-35-55 immunized, versus placebo): significantly increased
EAE score ([2]; E2 pretreatment 7 days before challenge, day 15 after induction (placebo 4.5-5)): 0
protection from EAE ([2]; wild-type C57BL/6 mice, therapeutic doses of E2): protected from EAE
